ChEMBL document CHEMBL4330111 (Bioorg Med Chem Lett, 2019)

What was measured:
[1] = test system: Mycobacterium tuberculosis; experiment: microbe, parasite or virus in culture; details: H37Rv, 144 h
Description: Antitubercular activity against Mycobacterium tuberculosis H37Rv after 6 days by alamar blue reagent based assay

Vero = experiment: Cytotoxicity against African green monkey Vero cells after 48 hrs by MTT assay; assay type: cell-based; details: chlorocebus sabaeus
[2] = AUC (0 to 5 hrs) in CD-1 mouse at 25 mg/kg, po administered as single dose by LC-MS/MS analysis; assay type: ADME, organism-based; design: dose 25 mg/kg, route oral; details: in vivo
Klebsiella pneumoniae = experiment: Antibacterial activity against Klebsiella pneumoniae BAA 2146; assay type: functional; details: ATCC BAA-2146
Staphylococcus aureus = experiment: Antibacterial activity against Staphylococcus aureus ATCC 43300; assay type: functional
[3] = Intrinsic clearance in mouse liver microsomes assessed per mg protein; assay type: ADME, Microsome
Pseudomonas aeruginosa = experiment: Antibacterial activity against Pseudomonas aeruginosa HER1018; assay type: functional
Acinetobacter baumannii = experiment: Antibacterial activity against Acinetobacter baumannii ATCC 19606; assay type: functional; details: ATCC 19606 = CIP 70.34 = JCM 6841
[4] = Half life in mouse liver microsomes; assay type: ADME, Microsome
[5] = Cmax in CD-1 mouse at 25 mg/kg, po administered as single dose by LC-MS/MS analysis; assay type: ADME, organism-based; design: dose 25 mg/kg, route oral; details: in vivo
[6] = Antibacterial activity against Enterobacter cloacae ATCC 13047; assay type: functional, Enterobacter cloacae subsp. cloacae
Enterococcus faecium = experiment: Antibacterial activity against Enterococcus faecium NCTC 7171; assay type: functional
[7] = Kinetic solubility of the compound in pH 7.4 phosphate buffered saline; assay type: physicochemical; details: for solubility kinetic: phosphate buffered saline, read-out: Kinetic_solubility; for Kinetic_solubility: buffer
[8] = Ratio of drug level in CD-1 mouse lungs to plasma at 25 mg/kg, po administered as single dose measured after 5 hrs by LC-MS/MS analysis; assay type: ADME, organism-based; details: lung/plasma

O=C(NCc1ccccc1Cl)c1ccc([N+](=O)[O-])o1
MIC [1]: 6.2 µM
CC50 (Vero): 11 µM

O=C(NCc1ccccc1)c1ccc([N+](=O)[O-])o1
AUC [2]: 547 ng·h/mL
MIC (Klebsiella pneumoniae): > 200 µM
MIC [1]: 0.39 µM
MIC (Staphylococcus aureus): > 200 µM
Intrinsic clearance [3]: 24.3 µL/min
MIC (Pseudomonas aeruginosa): > 200 µM
CC50 (Vero): 13 µM
MIC (Acinetobacter baumannii): > 200 µM
t1/2 [4]: 28.5 min
Cmax ([5]; CD-1, mouse, read-out: Cmax): 1160 nM
MIC [6]: > 200 µM
MIC (Enterococcus faecium): > 200 µM
solubility kinetic [7]: > 500 µM

O=C(Nc1ccc(Cl)cc1)c1ccc([N+](=O)[O-])o1
MIC [1]: 0.78 µM
CC50 (Vero): 1.5 µM

O=C(Nc1ccccc1)c1ccc([N+](=O)[O-])o1
MIC [1]: 3.1 µM
CC50 (Vero): 6.7 µM

O=C(NCCc1ccccc1)c1ccc([N+](=O)[O-])o1
MIC [1]: 3.1 µM
CC50 (Vero): 12 µM

CC(NC(=O)c1ccc([N+](=O)[O-])o1)c1ccccc1 (stereo unspecified)
MIC [1]: 6.2 µM
CC50 (Vero): 24 µM

CC(C)(NC(=O)c1ccc([N+](=O)[O-])o1)c1ccccc1
AUC [2]: 717 ng·h/mL
MIC [1]: 0.78 µM
Intrinsic clearance [3]: 9.3 µL/min
t1/2 [4]: 74.5 min
Cmax ([5]; CD-1, mouse, read-out: Cmax): 1620 nM
Kinetic_solubility [7]: 388 µM

O=C(NC(=O)c1ccc([N+](=O)[O-])o1)c1ccccc1
MIC [1]: 25 µM
CC50 (Vero): 3 µM

O=C(Nc1cc2ccccc2o1)c1ccc([N+](=O)[O-])o1
MIC [1]: 0.2 µM
CC50 (Vero): 40 µM

CC(C)(NC(=O)c1ccc([N+](=O)[O-])o1)c1ccc(Oc2ccc(Cl)cc2)cc1
MIC [1]: 0.39 µM
CC50 (Vero): 67 µM

CC(C)(C)C(NC(=O)c1ccc([N+](=O)[O-])o1)c1ccccc1 (stereo unspecified)
MIC [1]: 25 µM
CC50 (Vero): 10 µM

O=C(NCc1ccc(Oc2ccc(Cl)cc2)cc1)c1ccc([N+](=O)[O-])o1
MIC [1]: 0.062 µM

O=C(NCCCc1ccc(Cl)cc1)c1ccc([N+](=O)[O-])o1
MIC [1]: 0.39 µM
CC50 (Vero): 19 µM

O=C(NCc1cccc(Cl)c1)c1ccc([N+](=O)[O-])o1
MIC [1]: 0.78 µM
CC50 (Vero): 5.5 µM

CC(C)(NC(=O)c1ccc([N+](=O)[O-])o1)c1ccc(COc2ccccc2OC(F)(F)F)cc1
MIC [1]: 0.098 µM
CC50 (Vero): 13 µM

CC(C)(NC(=O)c1ccc([N+](=O)[O-])o1)c1ccc(COc2ccc(C(F)(F)F)cc2)cc1
MIC [1]: 0.39 µM
CC50 (Vero): 7 µM

CC(C)C(NC(=O)c1ccc([N+](=O)[O-])o1)c1ccccc1 (stereo unspecified)
MIC [1]: 6.2 µM
CC50 (Vero): 22 µM

COc1ccc(OCc2ccc(C(C)(C)NC(=O)c3ccc([N+](=O)[O-])o3)cc2)cc1
AUC [2]: 11 ng·h/mL
MIC (Klebsiella pneumoniae): > 120 µM
MIC [1]: 0.078 µM
MIC (Staphylococcus aureus): > 120 µM
Intrinsic clearance [3]: 15.4 µL/min
MIC (Pseudomonas aeruginosa): > 120 µM
CC50 (Vero): > 120 µM
MIC (Acinetobacter baumannii): > 120 µM
t1/2 [4]: 45 min
Cmax ([5]; mouse): 5 ng/mL
MIC [6]: > 120 µM
MIC (Enterococcus faecium): > 120 µM
solubility kinetic [7]: < 0.06 µM

COc1ccccc1OCc1ccc(C(C)(C)NC(=O)c2ccc([N+](=O)[O-])o2)cc1
AUC [2]: 210 ng·h/mL
MIC (Klebsiella pneumoniae): > 120 µM
MIC [1]: 0.019 µM
MIC (Staphylococcus aureus): > 120 µM
Intrinsic clearance [3]: 59.8 µL/min
MIC (Pseudomonas aeruginosa): > 120 µM
Kp at 5 h [8]: 0.04 to 0.09
MIC (Acinetobacter baumannii): > 120 µM
t1/2 [4]: 11.6 min
Cmax ([5]; CD-1, mouse, read-out: Cmax): 210 nM
MIC [6]: > 120 µM
MIC (Enterococcus faecium): > 120 µM
Kinetic_solubility [7]: 0.182 µM

CC(C)(NC(=O)c1ccc([N+](=O)[O-])o1)c1ccc(C#N)cc1
MIC [1]: > 10 µM
CC50 (Vero): 83 µM

CC(C)(NC(=O)c1ccc([N+](=O)[O-])o1)c1ccc(F)cc1
MIC [1]: 0.78 µM
CC50 (Vero): 42 µM

CC(C)(NC(=O)c1ccc([N+](=O)[O-])o1)c1ccc(C(F)(F)F)cc1
MIC [1]: 0.78 µM
CC50 (Vero): > 150 µM

CC(C)(NC(=O)c1ccc([N+](=O)[O-])o1)c1ccc(COc2ccc(OC(F)(F)F)cc2)cc1
MIC [1]: 0.39 µM
CC50 (Vero): 6.7 µM

CC(C)(NC(=O)c1ccc([N+](=O)[O-])o1)c1ccc(Cl)cc1
MIC [1]: 0.15 µM

COc1ccc(C(C)(C)NC(=O)c2ccc([N+](=O)[O-])o2)cc1
MIC [1]: 0.078 µM

O=C(NCCCc1ccccc1)c1ccc([N+](=O)[O-])o1
MIC [1]: 0.78 µM
CC50 (Vero): 11 µM

CC(C)(NC(=O)c1ccc([N+](=O)[O-])o1)c1ccc(COc2ccc(Cl)cc2)cc1
AUC [2]: 34 ng·h/mL
MIC [1]: 0.12 µM
Cmax ([5]; CD-1, mouse, read-out: Cmax): 22 nM

CN(C)c1ccc(C(C)(C)NC(=O)c2ccc([N+](=O)[O-])o2)cc1
MIC [1]: 0.2 µM
CC50 (Vero): 79 µM

O=C(NCc1ccc(Cl)cc1)c1ccc([N+](=O)[O-])o1
MIC [1]: 0.098 µM

CC(C)(NC(=O)c1ccc([N+](=O)[O-])o1)c1ccc(OC(F)(F)F)cc1
MIC [1]: 0.2 µM
CC50 (Vero): 70 µM

O=C(Nc1cc2ccccc2s1)c1ccc([N+](=O)[O-])o1
MIC [1]: 0.078 µM
Intrinsic clearance [3]: 371 µL/min
CC50 (Vero): 38 µM
t1/2 [4]: 1.87 min
Kinetic_solubility [7]: 5.61 µM

CC(C)(NC(=O)c1ccc([N+](=O)[O-])o1)c1ccc(CN2CCOCC2)cc1
MIC [1]: > 10 µM
CC50 (Vero): 130 µM

O=C(NCCc1ccc(Cl)cc1)c1ccc([N+](=O)[O-])o1
MIC [1]: 0.39 µM
CC50 (Vero): 5.4 µM

O=C(NC1(c2ccccc2)CC1)c1ccc([N+](=O)[O-])o1
MIC [1]: 6.2 µM
CC50 (Vero): 46 µM

O=C(Nc1ccc2ccccc2c1)c1ccc([N+](=O)[O-])o1
MIC [1]: 0.0078 µM
Intrinsic clearance [3]: 325 µL/min
CC50 (Vero): > 150 µM
t1/2 [4]: 2.13 min
Kinetic_solubility [7]: 1.5 µM

O=C(NCc1ccc(COc2ccc(Cl)cc2)cc1)c1ccc([N+](=O)[O-])o1
MIC [1]: 0.039 µM

O=C(NC(c1ccccc1)C1CC1)c1ccc([N+](=O)[O-])o1 (stereo unspecified)
MIC [1]: 12 µM
CC50 (Vero): 22 µM

O=C(NCc1ccc(CN2CCOCC2)cc1)c1ccc([N+](=O)[O-])o1
MIC [1]: 1.2 µM
CC50 (Vero): 18 µM

CC(C)(NC(=O)c1ccc([N+](=O)[O-])o1)c1ccc(-c2ccc(Cl)cc2)cc1
MIC [1]: 25 µM
CC50 (Vero): > 140 µM

CC(C)(NC(=O)c1ccc([N+](=O)[O-])o1)c1ccc(COc2ccccc2C(F)(F)F)cc1
MIC [1]: 0.31 µM
CC50 (Vero): 14 µM

O=C(NCc1ccc(-c2ccc(Cl)cc2)cc1)c1ccc([N+](=O)[O-])o1
MIC [1]: 0.12 µM
CC50 (Vero): 4.4 µM

CC(C)(C)c1ccc(C(C)(C)NC(=O)c2ccc([N+](=O)[O-])o2)cc1
MIC [1]: 0.39 µM
CC50 (Vero): > 150 µM

CC(C)(NC(=O)c1ccc([N+](=O)[O-])o1)c1ccc(COc2ccccc2Cl)cc1
MIC [1]: 0.31 µM
CC50 (Vero): 30 µM

CO[C@H]1/C=C/O[C@@]2(C)Oc3c(C)c(O)c4c(O)c(c(/C=N/N5CCN(C)CC5)c(O)c4c3C2=O)NC(=O)/C(C)=C\C=C\[C@H](C)[C@H](O)[C@@H](C)[C@@H](O)[C@@H](C)[C@H](OC(C)=O)[C@@H]1C [RIFAMPIN]
MIC [1]: 0.0125 to 0.05 µg/mL
